Reference: patent US20260217765A1, “NOVEL ANTIMICROBIAL PEPTIDE DESIGNED FROM DUCK-DERIVED ANTIMICROBIAL PEPTIDE ANDUSE THEREOF” (INDUSTRY-ACADEMIC COOPERATION FOUNDATION, CHOSUN UNIVERSITY, priority 2023, published 2026)
Converted amounts (≈) assume the structure as drawn. Peptide text beside a SMILES is read from it.

What was measured:
[1] = system: Acinetobacter baumannii_isolate 1 (antibiotic-resistant); format: cell-based, Acinetobacter baumannii; conditions: isolate 1 (antibiotic-resistant)
Description: (§1) To compare the antimicrobial activity of the peptides prepared in <Example 1>, the minimum inhibitory concentration (MIC), […] measured. Here, the minimal inhibitory concentration (MIC) refers to the lowest concentration of a substance that prevents visible bacterial growth.
(§2) Specifically, the bacterial strains listed in Table 2 below were obtained and cultured in media suitable for each strain until the mid-log phase. The cultures were then diluted to a concentration of 2×10^4 cells/100 μL and prepared in microtiter plates (Nunc, USA). Subsequently, serial 2-fold dilutions of the peptides prepared in Example 1 were prepared, and 10 μL of each dilution was added to the wells, and the plates were incubated at 37° C. for 18 hours. Absorbance at 600 nm was measured using a microtiter plate reader (Merck ELISA reader, Germany) to determine the MIC values for each bacterial strain. The parent peptide dCATH was used as a control.

[2] = system: Acinetobacter baumannii_isolate 10 (antibiotic-resistant); format: cell-based, Acinetobacter baumannii; conditions: isolate 10 (antibiotic-resistant)
Description: as §1, §2

[3] = system: Acinetobacter baumannii_isolate 12 (antibiotic-resistant); format: cell-based, Acinetobacter baumannii; conditions: isolate 12 (antibiotic-resistant)
Description: as §1, §2

[4] = system: Acinetobacter baumannii_isolate 13 (antibiotic-resistant); format: cell-based, Acinetobacter baumannii; conditions: isolate 13 (antibiotic-resistant)
Description: as §1, §2

[5] = system: Acinetobacter baumannii_isolate 14 (antibiotic-resistant); format: cell-based, Acinetobacter baumannii; conditions: isolate 14 (antibiotic-resistant)
Description: as §1, §2

[6] = system: Acinetobacter baumannii_isolate 17 (antibiotic-resistant); format: cell-based, Acinetobacter baumannii; conditions: isolate 17 (antibiotic-resistant)
Description: as §1, §2

[7] = system: Acinetobacter baumannii_isolate 18 (antibiotic-resistant); format: cell-based, Acinetobacter baumannii; conditions: isolate 18 (antibiotic-resistant)
Description: as §1, §2

[8] = system: Acinetobacter baumannii_isolate 19 (antibiotic-resistant); format: cell-based, Acinetobacter baumannii; conditions: isolate 19 (antibiotic-resistant)
Description: as §1, §2

[9] = system: Acinetobacter baumannii_isolate 2 (antibiotic-resistant); format: cell-based, Acinetobacter baumannii; conditions: isolate 2 (antibiotic-resistant)
Description: as §1, §2

[10] = system: Acinetobacter baumannii_isolate 22 (antibiotic-resistant); format: cell-based, Acinetobacter baumannii; conditions: isolate 22 (antibiotic-resistant)
Description: as §1, §2

[11] = system: Acinetobacter baumannii_isolate 23 (antibiotic-resistant); format: cell-based, Acinetobacter baumannii; conditions: isolate 23 (antibiotic-resistant)
Description: as §1, §2

[12] = system: Acinetobacter baumannii_isolate 24 (antibiotic-resistant); format: cell-based, Acinetobacter baumannii; conditions: isolate 24 (antibiotic-resistant)
Description: as §1, §2

[13] = system: Acinetobacter baumannii_isolate 25 (antibiotic-resistant); format: cell-based, Acinetobacter baumannii; conditions: isolate 25 (antibiotic-resistant)
Description: as §1, §2

[14] = system: Acinetobacter baumannii_isolate 26 (antibiotic-resistant); format: cell-based, Acinetobacter baumannii; conditions: isolate 26 (antibiotic-resistant)
Description: as §1, §2

[15] = system: Acinetobacter baumannii_isolate 3 (antibiotic-resistant); format: cell-based, Acinetobacter baumannii; conditions: isolate 3 (antibiotic-resistant)
Description: as §1, §2

[16] = system: Acinetobacter baumannii_isolate 4 (antibiotic-resistant); format: cell-based, Acinetobacter baumannii; conditions: isolate 4 (antibiotic-resistant)
Description: as §1, §2

[17] = system: Acinetobacter baumannii_isolate 5 (antibiotic-resistant); format: cell-based, Acinetobacter baumannii; conditions: isolate 5 (antibiotic-resistant)
Description: as §1, §2

[18] = system: Acinetobacter baumannii_isolate 6 (antibiotic-resistant); format: cell-based, Acinetobacter baumannii; conditions: isolate 6 (antibiotic-resistant)
Description: as §1, §2

[19] = system: Acinetobacter baumannii_isolate 7 (antibiotic-resistant); format: cell-based, Acinetobacter baumannii; conditions: isolate 7 (antibiotic-resistant)
Description: as §1, §2

[20] = system: Acinetobacter baumannii_isolate 8 (antibiotic-resistant); format: cell-based, Acinetobacter baumannii; conditions: isolate 8 (antibiotic-resistant)
Description: as §1, §2

[21] = system: Acinetobacter baumannii_isolate 9 (antibiotic-resistant); format: cell-based, Acinetobacter baumannii; conditions: isolate 9 (antibiotic-resistant)
Description: as §1, §2

[22] = system: Acinetobacter baumannii_isolate11 (antibiotic-resistant); format: cell-based, Acinetobacter baumannii; conditions: isolate11 (antibiotic-resistant)
Description: as §1, §2

[23] = system: Acinetobacter baumannii_isolate15 (antibiotic-resistant); format: cell-based, Acinetobacter baumannii; conditions: isolate15 (antibiotic-resistant)
Description: as §1, §2

[24] = system: Acinetobacter baumannii_isolate16 (antibiotic-resistant); format: cell-based, Acinetobacter baumannii; conditions: isolate16 (antibiotic-resistant)
Description: as §1, §2

[25] = system: Acinetobacter baumannii_isolate20 (antibiotic-resistant); format: cell-based, Acinetobacter baumannii; conditions: isolate20 (antibiotic-resistant)
Description: as §1, §2

[26] = system: Acinetobacter baumannii_isolate21 (antibiotic-resistant); format: cell-based, Acinetobacter baumannii; conditions: isolate21 (antibiotic-resistant)
Description: as §1, §2

[27] = system: Acinetobacter baumannii KCTC 2508; format: cell-based; conditions: KCTC 2508, 24 h
Description: Specifically, among the bacterial strains listed in Table 2, those known to form biofilms well (Acinetobacter baumannii KCTC 2508, Acinetobacter baumannii isolate 10, and isolate 14) were cultured in the appropriate media to the mid-log phase and diluted to a cell concentration of 5×10^4 cells/100 µL, followed by inoculation into microplates (SPL). Subsequently, the peptides prepared in <Example 1> were serially 10-fold diluted with 10 mM sodium phosphate buffer (pH 7.2), and 10 μL of each dilution was added to each well. The plates were then incubated at 37° C. for 24 hours. After completely removing the supernatant, the plates were fixed with 100% methanol for 15 minutes, stained with crystal violet staining solution for 1 hour, washed three times, and then the stain was solubilized with 95% ethanol. Absorbance was measured at 595 nm using a microplate reader to determine the MBIC values for each bacterial strain.

## CC[C@H](C)[C@H](NC(=O)[C@H](C)NC(=O)[C@H](CC(C)C)NC(=O)[C@@H]1CCCN1C(=O)[C@@H](NC(=O)[C@H](CC(C)C)NC(=O)[C@H](CCC(N)=O)NC(=O)[C@H](C)NC(=O)[C@H](C)NC(=O)[C@H](CCCNC(=N)N)NC(=O)[C@@H](N)CCCCN)C(C)C)C(=O)N[C@@H](CCCCN)C(=O)N[C@H](C(=O)N[C@@H](Cc1ccc(O)cc1)C(=O)N[C@@H](CCCNC(=N)N)C(=O)N[C@@H](C)C(=O)N[C@@H](Cc1c[nH]c2ccccc12)C(=O)N[C@@H](CCCCN)C(=O)N[C@@H](CCCNC(=N)N)C(=O)N[C@@H](CCCNC(=N)N)C(N)=O)[C@@H](C)CC [dCATH-A3] (H-KRAAQLVPLAIKIYRAWKRR-NH2; N-terminus assumed)
[1]
  MIC: 1 µM (≈ 2.44 µg/mL)
[2]
  MIC: 2 µM (≈ 4.87 µg/mL)
[3]
  MIC: 1 µM (≈ 2.44 µg/mL)
[4]
  MIC: 1 µM (≈ 2.44 µg/mL)
[5]
  MIC: 2 µM (≈ 4.87 µg/mL)
[6]
  MIC: 1 µM (≈ 2.44 µg/mL)
[7]
  MIC: 1 µM (≈ 2.44 µg/mL)
[8]
  MIC: 1 µM (≈ 2.44 µg/mL)
[9]
  MIC: 1 µM (≈ 2.44 µg/mL)
[10]
  MIC: 1 µM (≈ 2.44 µg/mL)
[11]
  MIC: 1 µM (≈ 2.44 µg/mL)
[12]
  MIC: 1 µM (≈ 2.44 µg/mL)
[13]
  MIC: 1 µM (≈ 2.44 µg/mL)
[14]
  MIC: 1 µM (≈ 2.44 µg/mL)
[15]
  MIC: 1 µM (≈ 2.44 µg/mL)
[16]
  MIC: 1 µM (≈ 2.44 µg/mL)
[17]
  MIC: 1 µM (≈ 2.44 µg/mL)
[18]
  MIC: 2 µM (≈ 4.87 µg/mL)
[19]
  MIC: 1 µM (≈ 2.44 µg/mL)
[20]
  MIC: 1 µM (≈ 2.44 µg/mL)
[21]
  MIC: 1 µM (≈ 2.44 µg/mL)
[22]
  MIC: 1 µM (≈ 2.44 µg/mL)
[23]
  MIC: 2 µM (≈ 4.87 µg/mL)
[24]
  MIC: 1 µM (≈ 2.44 µg/mL)
[25]
  MIC: 1 µM (≈ 2.44 µg/mL)
[26]
  MIC: 4 µM (≈ 9.75 µg/mL)
[27]
  MBIC: 2 µM

## CC[C@H](C)[C@H](NC(=O)[C@H](C)NC(=O)[C@H](CC(C)C)NC(=O)[C@H](CCCCN)NC(=O)[C@@H](NC(=O)[C@H](CC(C)C)NC(=O)[C@H](CCC(N)=O)NC(=O)[C@H](C)NC(=O)[C@H](C)NC(=O)[C@H](CCCNC(=N)N)NC(=O)[C@@H](N)CCCCN)C(C)C)C(=O)N[C@@H](CCCCN)C(=O)N[C@H](C(=O)N[C@@H](Cc1ccc(O)cc1)C(=O)N[C@@H](CCCNC(=N)N)C(=O)N[C@@H](C)C(=O)N[C@@H](Cc1c[nH]c2ccccc12)C(=O)N[C@@H](CCCCN)C(=O)N[C@@H](CCCNC(=N)N)C(=O)N[C@@H](CCCNC(=N)N)C(N)=O)[C@@H](C)CC [dCATH-A4] (H-KRAAQLVKLAIKIYRAWKRR-NH2; N-terminus assumed)
[1]
  MIC: 2 µM (≈ 4.94 µg/mL)
[2]
  MIC: 4 µM (≈ 9.87 µg/mL)
[3]
  MIC: 2 µM (≈ 4.94 µg/mL)
[4]
  MIC: 2 µM (≈ 4.94 µg/mL)
[5]
  MIC: 2 µM (≈ 4.94 µg/mL)
[6]
  MIC: 2 µM (≈ 4.94 µg/mL)
[7]
  MIC: 2 µM (≈ 4.94 µg/mL)
[8]
  MIC: 2 µM (≈ 4.94 µg/mL)
[9]
  MIC: 2 µM (≈ 4.94 µg/mL)
[10]
  MIC: 2 µM (≈ 4.94 µg/mL)
[11]
  MIC: 2 µM (≈ 4.94 µg/mL)
[12]
  MIC: 2 µM (≈ 4.94 µg/mL)
[13]
  MIC: 2 µM (≈ 4.94 µg/mL)
[14]
  MIC: 2 µM (≈ 4.94 µg/mL)
[15]
  MIC: 2 µM (≈ 4.94 µg/mL)
[16]
  MIC: 2 µM (≈ 4.94 µg/mL)
[17]
  MIC: 2 µM (≈ 4.94 µg/mL)
[18]
  MIC: 1 µM (≈ 2.47 µg/mL)
[19]
  MIC: 2 µM (≈ 4.94 µg/mL)
[20]
  MIC: 2 µM (≈ 4.94 µg/mL)
[21]
  MIC: 2 µM (≈ 4.94 µg/mL)
[22]
  MIC: 2 µM (≈ 4.94 µg/mL)
[23]
  MIC: 2 µM (≈ 4.94 µg/mL)
[24]
  MIC: 2 µM (≈ 4.94 µg/mL)
[25]
  MIC: 2 µM (≈ 4.94 µg/mL)
[26]
  MIC: 2 µM (≈ 4.94 µg/mL)
[27]
  MBIC: 4 µM

## CC[C@H](C)[C@H](NC(=O)[C@H](C)NC(=O)[C@H](CCCCN)NC(=O)[C@H](CCCCN)NC(=O)[C@@H](NC(=O)[C@H](CC(C)C)NC(=O)[C@H](CCC(N)=O)NC(=O)[C@H](C)NC(=O)[C@H](C)NC(=O)[C@H](CCCNC(=N)N)NC(=O)[C@@H](N)CCCCN)C(C)C)C(=O)N[C@@H](CCCCN)C(=O)N[C@H](C(=O)N[C@@H](Cc1ccc(O)cc1)C(=O)N[C@@H](CCCNC(=N)N)C(=O)N[C@@H](C)C(=O)N[C@@H](Cc1c[nH]c2ccccc12)C(=O)N[C@@H](CCCCN)C(=O)N[C@@H](CCCNC(=N)N)C(=O)N[C@@H](CCCNC(=N)N)C(N)=O)[C@@H](C)CC [dCATH-A5] (H-KRAAQLVKKAIKIYRAWKRR-NH2; N-terminus assumed)
[1]
  MIC: 1 µM (≈ 2.48 µg/mL)
[2]
  MIC: 1 µM (≈ 2.48 µg/mL)
[3]
  MIC: 1 µM (≈ 2.48 µg/mL)
[4]
  MIC: 1 µM (≈ 2.48 µg/mL)
[5]
  MIC: 1 µM (≈ 2.48 µg/mL)
[6]
  MIC: 1 µM (≈ 2.48 µg/mL)
[7]
  MIC: 1 µM (≈ 2.48 µg/mL)
[8]
  MIC: 1 µM (≈ 2.48 µg/mL)
[9]
  MIC: 1 µM (≈ 2.48 µg/mL)
[10]
  MIC: 2 µM (≈ 4.97 µg/mL)
[11]
  MIC: 1 µM (≈ 2.48 µg/mL)
[12]
  MIC: 2 µM (≈ 4.97 µg/mL)
[13]
  MIC: 1 µM (≈ 2.48 µg/mL)
[14]
  MIC: 1 µM (≈ 2.48 µg/mL)
[15]
  MIC: 1 µM (≈ 2.48 µg/mL)
[16]
  MIC: 1 µM (≈ 2.48 µg/mL)
[17]
  MIC: 1 µM (≈ 2.48 µg/mL)
[18]
  MIC: 1 µM (≈ 2.48 µg/mL)
[19]
  MIC: 1 µM (≈ 2.48 µg/mL)
[20]
  MIC: 1 µM (≈ 2.48 µg/mL)
[21]
  MIC: 1 µM (≈ 2.48 µg/mL)
[22]
  MIC: 1 µM (≈ 2.48 µg/mL)
[23]
  MIC: 1 µM (≈ 2.48 µg/mL)
[24]
  MIC: 1 µM (≈ 2.48 µg/mL)
[25]
  MIC: 1 µM (≈ 2.48 µg/mL)
[26]
  MIC: 1 µM (≈ 2.48 µg/mL)
[27]
  MBIC: 2 µM
